Laboratory results as given in patent US4743609A, “Indole derivatives having gastric and antisecretory and cytoprotective properties, and pharmaceutical preparations containing same” (Banyu Pharmaceutical Co., Ltd., priority 1985, dated 1988).
Like-named read-outs stand apart in the source and are kept apart here.

Columns and labels:
[1] = system: gastric acid secretion; assay: Gastric acid antisecretory activity (tetragastrin-stimulated secretion); assay type: in vivo, Donryu-strain rats; details: for ED50: Rattus norvegicus, iv, anaesthetized rats, tetragastrin 5 μg/kg, read-out: ED50 effective for 50% inhibition of the gastric acid secretion
Description: The bilateral vagus nerves in the cervical region of the rats were surgically cut and cannulas were inserted into the pylorus and also into the esophagus, respectively, and tied in place according to the method of Ghosh and Schild (see "Brit. J. Pharmacol." 13, 54 (1958)). Aqueous 0.9% saline solution (pH 8.5) as warmed to 40° C. was passed through the […] cannula into the stomack at a rate of 1 ml/min. for the perfusion. The pH value of the effluent coming from the pyloral cannula was measured. At the stage when the pH value of said effluent became steady, 5 μg/kg of tetragastrin, a stimulant for the gastric acid secretion, was administered through a cannula which had been inserted into the cervical vein. After the administration of tetragastrin,the decreasing change of pH value in the effluent was measured at constant intervals of time. Subsequently, a solution of the test compound in methanol was intraveously administered to the rat, and 15 minutes later tetragastrin was again administered. From the test data of the pH measurements so obtained was evaluated the ED50 value of the tested compound effective for 50% inhibition of the gastric acid secretion.

[2] = system: rabbit gastric glands; assay: Inhibitory effects on aminopyrine uptake into gastric glands; assay type: cell-based; details: Oryctolagus cuniculus, 0.5 h, 37° C., 30 minutes, untreated control = 100%; for activity at 100 µM: 10^-4 M test compound; for activity at 10 µM: 10^-5 M test compound; for activity at 1 µM: 10^-6 M test compound
Source text: The production of gastric acid in the gastric mucosa is known to be performed by the parietal cells which are one kind of the cells constituting the gastric glands. The extent of the gastric acid secretion by the parietal cells has been deduced to be proportional to the rate of aminopyrine uptake into the gastric glands. Accordingly, the investigation of aminopyrine uptake into the gastric glands has been generally used as the indirect method for measuring the gastric acid secretion. Therefore, suspension of the rabbit gastric glands was prepared according to the method of Berglindh et al (see "Acta Physiol. Scand." 97, 401-414 (1976)). […] After this incubation, the reaction mixture obtained was centrifuged so that the gastric glands were spun down and separated from the incubation mixture. The gastric glands so collected were liophylized and the dry weight of the glands was measured. […] The so determined value of the radio-activity was assumed as the concentration or level of the aminopyrine uptaken into the gastric glands. According to the report of Berglindh et al (see "Acta Physiol. […] The radio-activity of the supernatant of the incubation mixture was determined in the same manner as above by the liquid scintillation counter, and the so determined value of the radio-activity of the supernatant was assumed to be the concentration or level of the aminopyrine present in the extraglandular water with the assumption that the so determined concentration of the aminopyrine in the supernatant was a measure of showing the quantity of the aminopyrine remaining not uptaken into gastric glands. Rate of aminopyrine uptake into gastric glands was calculated according to the following equation: [formula] The above experiment was repeated without the test compound as the Control test (untreated with test compound), and the rate of aminopyrine uptake as determined for this control test (untreated) was assumed to be 100%. The value (% of Control) was taken as showing the inhibitory effects of the test compound on the acid secretion. As a comparative drug, omeprazole was tested in the same way as above.

[3] = biological target: T1, H^+,K^+ -ATPase (Oryctolagus cuniculus, UniProt P27112); assay: Inhibitory effects on the enzymatic activity of H^+,K^+ -ATPase; assay type: biochemical, rabbit
T1 construct: The rabbit gastric glands were homogenized and the microsomal fractions were prepared; from tissue; host or cells: rabbit gastric glands, light membrane fraction between 30% and 40% sucrose
Description: The rabbit gastric glands were homogenized and the microsomal fractions were prepared by differential centrifugation of the resultant homogenate. The microsomal fractions were layered on a linear continuous sucrose gradient ranging from 20 to 55% (W/V) sucrose and centrifuged to obtain the light membrane fractions sedimenting between 30% sucrose and 40% sucrose. The light membrane fractions containing the H^+,K^+ -ATPase so obtained were used to estimate the inhibitory effects of the new compound of this invention or omeprazole on the enzymatic activity of H^+,K^+ -ATPase. Test compounds were pre-incubated with the reaction mixture containing the enzyme (20-50 μg as protein) for 30 minutes at 37° C. After this, the enzymatic activity of the reaction mixture was determined by incubating for 20 minutes at 37° C. with the following reactant mixture comprising 10 mM MgCl2, 10 mM ATP disodium salt and 400 mM Tris-HCl (pH 7.3) with or without 50 mM KCl.

[4] = system: gastric mucosa; assay: Preventing the gastric ulcer induced by ethanol-hydrochloric acid (gastric cytoprotection); assay type: in vivo, SD-strain rats; details: Rattus norvegicus, po, rats; 30 minutes before 0.2N hydrochloric acid-50% aqueous ethanol; read-out: ED50 effective for 50% inhibition to the formation of necrotic lesions
Description: Thus, according to the method of Robert et al (see "Gastroenterology" 77, 433-443 (1979)), SD-strain rats (male, weighing 200 to 220 g, 8 rats in each group) were deprived of food for 24 hours and deprived of water for 19 hours. The rats were then administered orally with a suspension of the test compound in aqueous 0.5% carboxymethylcellulose solution at a dosage of 6, 10 or 20 mg/kg of the test compound. […] One hour after the administration of the ethanolic hydrochloric acid, the rats were killed. Their stomacks were dissected out, and the lower part of the esophagus was nipped with a clip. Aqueous 1% formalin solution (12.0 ml) was poured into the stomacks from duodenum and then the duodenal part was nipped by a clip. The whole stomacks were immersed in aqueous 1% formalin solution for about 10 minutes for the fixation, the pyloric stomacks were opened along the greater curvature and then rinsed with water. The gastric mucosa was examined and the necrotic lesions or errosions as formed in the glandular stomack and in the pylorus were examined under anatomic microscope to determine the length (in mm) of the lesions. From the test results obtained by the above procedure, the ED50 value of the tested compound effective for 50% inhibition to the formation of necrotic lesions was evaluated. Omeprazole as the comparative drug was tested in the same manner as above.

[5] = pre-incubated 30 minutes at 37° C., pH 7.3, with or without 50 mM KCl, read-out: IC50 value required for 50% inhibition of the enzymatic activity

T1 sequence (P27112 whole entry): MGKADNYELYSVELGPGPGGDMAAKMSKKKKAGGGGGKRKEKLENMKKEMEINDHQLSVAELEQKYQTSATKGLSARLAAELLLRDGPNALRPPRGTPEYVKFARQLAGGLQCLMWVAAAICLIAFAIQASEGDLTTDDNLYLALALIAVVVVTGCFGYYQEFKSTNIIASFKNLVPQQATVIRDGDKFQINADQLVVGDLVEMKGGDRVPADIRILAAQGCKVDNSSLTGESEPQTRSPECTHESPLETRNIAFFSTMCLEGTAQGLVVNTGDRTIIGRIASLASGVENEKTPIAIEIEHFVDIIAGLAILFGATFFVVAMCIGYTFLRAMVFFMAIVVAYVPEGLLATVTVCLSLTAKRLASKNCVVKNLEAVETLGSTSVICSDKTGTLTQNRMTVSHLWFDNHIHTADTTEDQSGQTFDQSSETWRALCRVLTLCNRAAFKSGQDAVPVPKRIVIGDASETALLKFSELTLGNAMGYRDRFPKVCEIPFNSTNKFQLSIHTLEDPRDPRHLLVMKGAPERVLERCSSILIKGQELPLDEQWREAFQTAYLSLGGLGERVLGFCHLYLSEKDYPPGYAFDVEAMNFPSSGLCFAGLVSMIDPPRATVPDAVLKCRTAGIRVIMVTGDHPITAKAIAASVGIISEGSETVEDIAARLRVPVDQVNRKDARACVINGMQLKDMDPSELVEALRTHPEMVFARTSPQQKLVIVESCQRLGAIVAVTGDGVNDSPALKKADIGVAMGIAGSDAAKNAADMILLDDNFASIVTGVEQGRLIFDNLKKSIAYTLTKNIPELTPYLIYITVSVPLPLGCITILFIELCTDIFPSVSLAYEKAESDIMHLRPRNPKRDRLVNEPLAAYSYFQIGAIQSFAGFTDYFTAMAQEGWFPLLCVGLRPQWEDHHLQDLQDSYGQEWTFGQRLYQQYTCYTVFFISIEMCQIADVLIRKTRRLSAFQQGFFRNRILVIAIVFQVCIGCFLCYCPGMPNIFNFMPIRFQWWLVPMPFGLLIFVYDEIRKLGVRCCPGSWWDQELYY
T1 sequence (P18597 whole entry partner): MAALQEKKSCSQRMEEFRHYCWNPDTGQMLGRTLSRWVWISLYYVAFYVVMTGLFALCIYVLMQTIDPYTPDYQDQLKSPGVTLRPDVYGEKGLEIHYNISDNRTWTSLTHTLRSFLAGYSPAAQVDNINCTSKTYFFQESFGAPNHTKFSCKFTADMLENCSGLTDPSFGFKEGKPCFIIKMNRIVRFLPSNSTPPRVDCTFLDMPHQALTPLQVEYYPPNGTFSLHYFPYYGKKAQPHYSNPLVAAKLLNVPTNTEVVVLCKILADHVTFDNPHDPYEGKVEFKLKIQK

In the case of `Cc1cnc(CSc2cc3ccccc3[nH]2)cc1N1CCCCC1` [Example 1, 2-[(5-methyl-4-piperidino-2-pyridyl)methylthio]indole], the ED50 [1] is reported as 7.58 mg/kg, the “gastric acid antisecretory activity (in words)” value ([1]; rat, in vivo) is reported as “remarkedly milder than that of opeprazole” and the activity at 100 µM [2] is reported as 7%. For the same compound, the activity at 10 µM [2] was 14%, the activity at 1 µM [2] was 44% and the “H^+,K^+ -ATPase inhibition (in words)” value [3] was “H^+,K^+ -ATPase inhibitors”. For the same compound, the IC50 [3, 5] was 50 µM and the ED50 [4] was 11.5 mg/kg.

`CN(C)c1ccnc(CSc2c[nH]c3ccccc23)c1` [Example 2, 3-[(4-dimethylamino-2-pyridyl)methylthio]indole] showed an activity at 100 µM [2] of 24%, an activity at 10 µM [2] of 72% and an activity at 1 µM [2] of 111%.

For `Cc1cnc(C[S+]([O-])c2cc3ccccc3[nH]2)cc1N1CCCCC1` (centres unmarked) [Example 3, 2-[(5-methyl-4-piperidino-2-pyridyl)methylsulfinyl]indole], the activity at 100 µM [2] was 54%, the activity at 10 µM [2] was 64% and the activity at 1 µM [2] was 99%.

With `Cc1cnc(CSc2cc3ccccc3n2C)cc1N1CCCCC1` [Example 4, 1-methyl-2-[(5-methyl-4-piperidino-2-pyridyl)methylthio]indole] the activity at 100 µM [2] was 7%, the activity at 10 µM [2] was 8% and the activity at 1 µM [2] was 50%.

With `Cc1ccc2[nH]c(SCc3cc(N4CCCCC4)c(C)cn3)cc2c1` [Example 5, 5-methyl-2-[(5-methyl-4-piperidino-2-pyridyl)methylthio]indole] the activity at 100 µM [2] was 11%, the activity at 10 µM [2] was 18% and the activity at 1 µM [2] was 56%. The ED50 [4] was 8.59 mg/kg.

With `Cc1cnc(CSc2cc3cc(F)ccc3[nH]2)cc1N1CCCCC1` [Example 6, 5-fluoro-2-[(5-methyl-4-piperidino-2-pyridyl)methylthio]indole] the activity at 100 µM [2] was 14%, the activity at 10 µM [2] was 76% and the activity at 1 µM [2] was 48%. It also gave an ED50 [4] of 12.7 mg/kg.

With `Cc1cnc(CSc2cc3cc(C(F)(F)F)ccc3[nH]2)cc1N1CCCCC1` [Example 7, 5-trifluoromethyl-2-[(5-methyl-4-piperidino-2-pyridyl)methylthio]indole] the activity at 100 µM [2] was 14%, the activity at 10 µM [2] was 17% and the activity at 1 µM [2] was 55%. For the same compound, the ED50 [4] was 9.77 mg/kg.

With `CCOC(=O)c1ccc2[nH]c(SCc3cc(N4CCCCC4)c(C)cn3)cc2c1` [Example 9, 5-ethoxycarbonyl-2-[(5-methyl-4-piperidino-2-pyridyl)methylthio]indole] the activity at 100 µM [2] was 15%, the activity at 10 µM [2] was 20% and the activity at 1 µM [2] was 61%.

`Cc1c(N2CCCCC2)ccnc1CSc1cc2ccccc2[nH]1` [Example 10, 2-[(3-methyl-4-piperidino-2-pyridyl)methylthio]indole] was tested, and the activity at 100 µM [2] was 4%, the activity at 10 µM [2] was 19% and the activity at 1 µM [2] was 71%.

In the case of `Cc1cnc(CSc2cc3ccccc3[nH]2)cc1N1CCOCC1` [Example 11, 2-[(5-methyl-4-morpholino-2-pyridyl)methylthio]indole], the activity at 100 µM [2] is reported as 3%, the activity at 10 µM [2] is reported as 56% and the activity at 1 µM [2] is reported as 106%.

With `Cc1cnc(CSc2cc3ccccc3[nH]2)cc1N1CCCC1` [Example 12, 2-[(5-methyl-4-pyrrolidino-2-pyridyl)methylthio]indole] the activity at 100 µM [2] was 10%, the activity at 10 µM [2] was 11% and the activity at 1 µM [2] was 48%.

In the case of `CN(C)c1ccnc(CSc2cc3ccccc3[nH]2)c1` [Example 13, 2-[(4-Dimethylamino-2-pyridyl)methylthio]indole], the activity at 100 µM [2] is reported as 3%, the activity at 10 µM [2] is reported as 48% and the activity at 1 µM [2] is reported as 118%. For the same compound, the “H^+,K^+ -ATPase inhibition (in words)” value [3] was “H^+,K^+ -ATPase inhibitors”, the IC50 [3, 5] was 700 µM and the ED50 [4] was 9.17 mg/kg.

In the case of `COc1ccc2[nH]c(SCc3cc(N4CCCCC4)c(C)cn3)cc2c1` [Example 21, 5-methoxy-2-[(5-methyl-4-piperidino-2-pyridyl)methylthio]indole], the ED50 [4] is reported as 14.6 mg/kg.

Compound `c1ccc2[nH]c(SCc3cc(N4CCCCC4)ccn3)cc2c1` [Example 22, 2-[(4-piperidino-2-pyridyl)methylthio]indole] has an ED50 [4] of 8.13 mg/kg.

Compound `Clc1ccnc(CSc2c[nH]c3ccccc23)c1` [Example 37, 3-[(4-chloro-2-pyridyl)methylthio]indole] has an activity at 100 µM [2] of 95%, an activity at 10 µM [2] of 105% and an activity at 1 µM [2] of 114%.

For `CCOC(=O)c1ccnc(CSc2c[nH]c3ccccc23)c1` [Example 38, 3-[(4-ethoxycarbonyl-2-pyridyl)methylthio]indole], the activity at 100 µM [2] was 141%, the activity at 10 µM [2] was 103% and the activity at 1 µM [2] was 120%.

`Oc1ccnc(CSc2c[nH]c3ccccc23)c1` [Example 39, 3-[(4-hydroxy-2-pyridyl)methylthio]indole] gave an activity at 100 µM [2] of 105%, an activity at 10 µM [2] of 109% and an activity at 1 µM [2] of 120%.

For `Cc1cnc(CSc2c[nH]c3ccccc23)cc1N1CCCCC1` [Example 40, 3-[(5-methyl-4-piperidino-2-pyridyl)methylthio]indole], the ED50 [4] was 2.84 mg/kg.

`COc1ccc2nc([S+]([O-])Cc3ncc(C)c(OC)c3C)[nH]c2c1` (centres unmarked) [Omeprazole, 2-[(3,5-dimethyl-4-methoxy-2-pyridyl)methylsulfinyl]-5-methoxybenzimidazole, reference compound] showed an ED50 [1] of 0.24 mg/kg, an activity at 100 µM [2] of 18% and an activity at 10 µM [2] of 25%. The activity at 1 µM [2] was 34%, the IC50 [3] was 9.4 µM and the ED50 [4] was 34.1 mg/kg.
